The record followed here is patent US12612427B2, “Aryl glucoside derivative, preparation method therefor and application thereof” (Shanghai Zheye Biotechnology Co. Ltd., priority 2020, dated 2026).

In this data set the test system is SD mice. Description: Oral glucose tolerance test (OGTT) after consecutive administration in mice. In kind it is in vivo, mouse. The settings on record: for Statistics of loose stools in animals / loose stools (in words): mice. As for the experimental part:
• Experimental animals: SPF male SD mice; • Compound preparation: an appropriate amount of the compound of Example 10 was weighed, and uniformly suspended with an appropriate amount of 0.5% CMC-Na solution; • Preparation of glucose solution: an appropriate amount of glucose powder was weighed and dissolved with an appropriate amount of pure water; • Administration and dosage: oral gavage; blank vehicle group, high-dose group (1.5 mg/kg), low-dose group (0.1 mg/kg). Experimental Process: • (1) The mice were fed a high-sugar diet for 6 days, and then grouped (10 mice in each group) to enter the administration stage; • (2) Example compound 10 was administered at 5:00 pm every day from day 1 to day 5, once a day, and then the animals were fed a high-sugar free diet, and the defecation of the animals was observed. • (3) On day 6, oral glucose tolerance test was performed, and glucose solution (2 g/kg) was orally administered. Blood glucose was detected before (0 min) and 10, 30, and 60 min after giving glucose solution, respectively. Experimental Results: • (1) From day 1 to day 5, the observation of animal defecation after continuous administration is summarized as follows: […]

Structures are written as SMILES. Several values for one entry are separate records, joined by “and”; a condition that tells them apart may be missing. Equal values may be shown once.

For `C#CCN(C)C(=O)CN(C)CCNC(=O)C(C)(C)NC(=O)CCCc1ccc(Cc2cc([C@@H]3O[C@H](SC)[C@@H](O)[C@H](O)[C@H]3O)ccc2C)cc1` [Example 10], the “blood glucose level of mice (OGTT)” value (day 6, high (1.5 mg/kg) and low (0.1 mg/kg) dose groups, glucose 2 g/kg) is listed as “significantly reduce the blood glucose level”. The “Statistics of loose stools in animals” value by setting is: (high-dose group (1.5 mg/kg), Day 1) “only one animal had loose stools and 1/10”; (high-dose group (1.5 mg/kg), Day 2) 0/10; (high-dose group (1.5 mg/kg), Day 3) 0/10; (high-dose group (1.5 mg/kg), Day 4) 0/10; (high-dose group (1.5 mg/kg), Day 5) 0/10; (low-dose group (0.1 mg/kg), Day 1) 0/10. Also, the “Statistics of loose stools in animals” value (low-dose group (0.1 mg/kg), Day 2) was 0/10; the “Statistics of loose stools in animals” value (low-dose group (0.1 mg/kg), Day 3) was 0/10; the “Statistics of loose stools in animals” value (low-dose group (0.1 mg/kg), Day 4) is 0/10; the “Statistics of loose stools in animals” value (low-dose group (0.1 mg/kg), Day 5) is 0/10. The “loose stools (in words)” value is “did not have loose stools” (high-dose group (1.5 mg/kg), day 2 to day 5) and “did not have loose stools” (low-dose group (0.1 mg/kg), continuous administration for 5 days).
